Columns and labels:
[1] = system: AD-PHF immobilized on CM5 sensor chip; assay: Surface plasmon resonance on immobilized AD-PHFs; assay type: binding, human; conditions: SPR, AD-PHFs versus aggregated amyloid
[2] = Parallel artificial membrane permeability assay; conditions: PAMPA, pH 7.4
AD-PHFs = AD-PHFs (Homo sapiens, UniProt P10636); assay: Inhibition assay, displacement of [3H]-AST from AD-PHFs; conditions: inhibition of [3H]-AST binding; Ki values only in Fig. 2E
[3] = system: synthetic Aβ peptide (Aβ1–42) aggregates; assay: Scatchard analysis of [3H]-AST binding to Aβ peptide aggregates; conditions: amyloid aggregates
[4] = target: heparin-induced tau filaments (HITF) (Homo sapiens, UniProt P10636); assay: Inhibition assay, displacement of [3H]-AST from HITF; conditions: inhibition of [3H]-AST binding; Ki values only in Fig. 2E
Chain of heparin-induced tau filaments (HITF) (P10636 1-441 isoform P10636-8): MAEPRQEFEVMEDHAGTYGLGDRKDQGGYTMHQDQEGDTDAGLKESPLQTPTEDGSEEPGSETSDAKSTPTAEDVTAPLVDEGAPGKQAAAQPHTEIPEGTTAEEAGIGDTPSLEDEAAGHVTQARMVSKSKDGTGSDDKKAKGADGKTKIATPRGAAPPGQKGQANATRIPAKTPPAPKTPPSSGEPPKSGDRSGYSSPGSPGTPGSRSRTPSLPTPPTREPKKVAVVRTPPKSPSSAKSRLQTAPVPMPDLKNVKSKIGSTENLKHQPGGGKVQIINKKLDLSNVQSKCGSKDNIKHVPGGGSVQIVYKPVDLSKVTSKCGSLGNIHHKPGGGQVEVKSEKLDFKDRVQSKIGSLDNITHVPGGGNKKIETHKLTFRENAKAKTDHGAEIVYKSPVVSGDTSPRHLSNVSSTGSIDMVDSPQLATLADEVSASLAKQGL

AD-PHF = AD-PHF (Homo sapiens, UniProt P10636); assay: Double staining immunofluorescence of AD-PHFs with PHF-1 antibody and LNS; conditions: LNS 0.1 %
Chain of AD-PHF (P10636 623-758 limits assumed): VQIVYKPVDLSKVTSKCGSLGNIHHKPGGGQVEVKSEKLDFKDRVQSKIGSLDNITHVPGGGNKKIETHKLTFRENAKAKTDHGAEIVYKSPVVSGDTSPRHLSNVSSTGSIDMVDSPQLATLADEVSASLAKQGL

Chain of AD-PHFs (P10636 623-758 limits assumed): as above

For `COc1ccc(CCN2CCC(Nc3nc4ccccc4n3Cc3ccc(F)cc3)CC2)cc1` [AST, astemizole], the “response curves (RU) on AD-PHFs surface compared to amyloid surface” value [1] was “at least five times higher”, the Papp at 16 h [2] was 145 ×10⁻⁶ cm/s and the “affinity for AD-PHFs (relative Ki within the series)” value (AD-PHFs) was “highest affinity for AD-PHFs”. The “ratio Bmax/Kd” value [3] was 0.06.

In the case of `Cc1c(OCC(F)(F)F)ccnc1C[S+]([O-])c1nc2ccccc2[nH]1` (stereo not shown) [LNS, lansoprazole], the “response curves (RU) on AD-PHFs surface compared to amyloid surface” value [1] is reported as “at least five times higher”, the “affinity for HITF (relative Ki within the series)” value [4] is reported as “highest affinity for HITF” and the “staining of AD-PHF compared with PHF-1 immunostaining” value (AD-PHF) is reported as “colocalization of the signals from LNS and PHF-1 mAb”.
